Columns and labels:
[1] = molecular target: T1, CCL5 (Homo sapiens, UniProt P13501); assay: 2D 1H-15N HSQC NMR titration; assay type: binding; conditions: 50 mM NaPO4 pH 3.2, 25 °C; 125 μM protein (dimeric); 0-100 mM ligand
T1 construct: [U-15N] recombinant mature chemokine, signal peptide removed; dimeric in the assay
T1 sequence (P13501 24-91): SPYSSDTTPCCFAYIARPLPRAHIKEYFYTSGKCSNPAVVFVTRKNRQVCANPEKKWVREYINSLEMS

[2] = molecular target: T2, CX3CL1 (Homo sapiens, UniProt P78423); assay: 2D 1H-15N HSQC NMR titration; assay type: binding; conditions: unbuffered pH 3.6, 25 °C; 250 μM protein; 0-100 mM ligand
T2 sequence (P78423 25-100): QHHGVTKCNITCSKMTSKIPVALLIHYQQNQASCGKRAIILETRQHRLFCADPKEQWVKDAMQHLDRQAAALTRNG

[3] = molecular target: T3, CXCL12 (Homo sapiens, UniProt P48061); assay: 2D 1H-15N HSQC NMR titration; assay type: binding; conditions: 25 mM d-MES pH 6.8, 37 °C; 250 μM protein; 0-100 mM ligand; shifts at the sTyr21 and sTyr12 sites
T3 construct: [U-15N] recombinant mature chemokine, signal peptide removed; predominantly monomer under assay conditions

[4] = molecular target: CCL5 (Homo sapiens) (UniProt P13501); conditions: cited from earlier work

N[C@@H](Cc1ccc(OS(=O)(=O)O)cc1)C(=O)O [sulfotyrosine]
chemical shift perturbation [1]: Residues His23, Lys45, and Arg47 identified in our titration | chemical shift perturbation [2]: Sulfotyrosine titration produced significant perturbations in CX3CL1 residues | chemical shift perturbation [3]: HSQC spectral overlays (Figure 4A) demonstrate significant chemical shift perturbations in the chemokine

CCL5 (from UniProt P13501)
Kd [4]: 35 µM

— paper PMC3131587, “Sulfotyrosine Recognition as Marker for Druggable Sites in the Extracellular Space” (International Journal of Molecular Sciences, 2011)
